{"source": "patent US10973850B2", "about": "“Composition comprising tricalcium phosphate and gelatin for use in a method for the treatment of dyspepsia and related disorders” (S.B.M. S.R.L., priority 2015, dated 2021)", "assay": "Protective effect: time to perforation of a sheet of wheat starch exposed to concentrated HCl", "conditions": "end point a clear-cut hole", "experimental": "The barrier-like effect of gelatin was experimentally assessed. A Sheet of wheat starch was exposed to a concentrated solution of HCl. The protective action was measured as an extension of time to perforation in comparison to control. The end consisted of a clear-cut hole.\nThe new threshold matched the potentially dangerous HCl concentration in the stomach at the above-mentioned ration, corresponding to about 6 parts of gelatin to 1 part of TCP.", "data": [{"smiles": "O=P([O-])([O-])[O-].O=P([O-])([O-])[O-].[Ca+2].[Ca+2].[Ca+2]", "note": "[TCP, tricalcium phosphate]", "values": [{"measurement": "protective action, extension of time to perforation in comparison to control", "value": "almost equally effective"}]}]}
